Measured values reported in PMC6327263, “Evaluation of Novel 3-Hydroxyflavone Analogues as HDAC Inhibitors against Colorectal Cancer” (Advances in Pharmacological Sciences, 2018).
Values joined by “and” are separate entries in the source; they are usually repeats but may differ in a detail not shown here. Equal entries are not always repeated. Marks after values point to notes of the source that are not given here.

Tests used:
[1] = test system: DMH-induced colon cancer; type: in vivo, Wistar rats; details: 5-FU 10 mg/kg i.p.
Experimental: The two test compounds (QMJ-2 and QMJ-5) and quercetin were suspended in 0.25% w/v sodium carboxymethyl cellulose (CMC) and were administered orally (p.o.). 5-Fluorouracil (5-FU) which was used as a standard was procured in the form of injection and was administered intraperitonially (i.p.).
Colon cancer in experimental animals was induced using the highly specific carcinogen DMH, with few modifications from the previously described procedure. DMH was administered at a dose of 30 mg/kg i.p. once a week for 20 weeks. The incidence of aberrant crypt foci (ACF) and adenocarcinoma were confirmed by sacrificing few animals after 20 weeks of induction with DMH. Furthermore, the animals were randomized into five experimental groups, and various treatments were administered for a period of 21 days followed by the assessment of different parameters in the experimental animals.
(1) Experimental Groups • Group 1: animals received 0.25% CMC in water p.o. • Group 2: animals received 0.25% CMC in water p.o. (DMH control) • Group 3: animals received 5-FU at 10 mg/kg i.p. • Group 4: animals received quercetin at 100 mg/kg p.o. • Group 5: animals received QMJ-2 at 100 mg/kg p.o. • Group 6: animals received QMJ-5 at 100 mg/kg p.o.
(2) ACF Formation and Adenocarcinoma Incidence. The entire colon was excised from the experimental animals and was used to study the incidence of adenocarcinoma. The count and size were noted from each animal. For ACF formation, the distal part of the colon was excised, and the tissue was then cut open and fixed with 10% buffered formalin for 12 h. Following this, the tissue was stained with 0.1% methylene blue in PBS for 5 min. The tissues were then observed under microscope for ACF formation and were calculated as the number of counts/5 cm^2 in colon tissue.
(3) Colon Weight/Length Ratio and Organ Index. Length of the excised colon was measured in centimeters, and weight was measured in g. Colon weight/length ratio was then calculated. For the determination of organ index, major organs including spleen, liver, and kidney of the experimental animals were weighed in g and the respective index was calculated. […]

[2] = test system: HCT116 cells; test: MTT cytotoxicity assay, HCT116; type: cell-based, human; details: Homo sapiens, HCT-116, 48 h, mean ± SEM of three experiments
Experimental: (§1) Human colorectal carcinoma cell line (HCT116) and African green monkey kidney epithelial cells (VERO) were obtained from National Centre for Cell Science, Pune, MH, India. For their maintenance, the cells were grown in Dulbecco's Modified Eagle's Medium (DMEM) which was supplemented with 10% fetal bovine serum (FBS) and 1 × penicillin/streptomycin at 37°C in CO2 incubator (NU-5501E/G, NuAire Inc., Plymouth, MN, USA) in a humidified atmosphere of 5% CO2 and 95% air.
(§2) Cytotoxicity for the synthesized analogues was determined using MTT assay. In brief, HCT116 and VERO cells were harvested from the tissue culture flask and seeded in sterile 96 well plates at a density of 5000 cells per well. After overnight adherence, different concentrations of test compounds were added and incubated for 48 h. Next, 50 µl of the MTT reagent (HiMedia Laboratories, Mumbai, India) (2 mg/ml in the sterile phosphate buffer saline (PBS)) was added into each well and incubated for 3 h. The formazan crystals formed were solubilized using 100% dimethyl sulfoxide (DMSO), and the optical density was measured at 540 nm using the microplate reader (ELx800, BioTek Instruments Inc., Winooski, VT, USA).

[3] = test system: HDAC enzyme in HCT116 cells; test: Whole cell HDAC inhibition assay; type: cell-based; details: Homo sapiens, HCT-116, HCT116, 18 h treatment, mean ± SEM of three experiments
Experimental: Confluent HCT116 cells were harvested and seeded in 96 well sterile black well plates at a density of 2000 cells per well and incubated overnight. Furthermore, the cells were treated with different concentrations of test compounds for a period of 18 h followed by the addition of […] BOC-Ac-Lys-AMC substrate and incubated for 1 h. […] The reaction was then allowed to proceed for 15 min at 37°C. Finally, the fluorescence intensity was measured at 360 nm excitation and 460 nm emission using a fluorescence microplate reader (FLx800, BioTek Instruments Inc., Winooski, VT, USA).

[4] = test system: VERO cells; test: MTT cytotoxicity assay, Vero; type: cell-based, African green monkey; details: Chlorocebus sabaeus, 48 h, mean ± SEM of three experiments
Experimental: as §1, §2

[5] = test system: acetyl histone H3K9; test: Western blotting, acetyl histone H3K9 expression; type: cell-based, human; details: HCT116 cells, 24 h, compared to normal control
Experimental: (§3) After various treatments for 24 h, cells were lysed, and protein quantification of the lysates was estimated using the BCA™ kit (Thermo Fisher Scientific Inc., Waltham, MA, USA). Proteins samples (30 µg) were resolved on a 10% SDS-PAGE and transferred onto a PVDF membrane and blocked with 5% nonfat milk in TBST (tris-buffered saline with Tween-20) buffer for 1 h followed by washing in TBST buffer. The membrane was then probed with primary antibodies (GAPDH, HDAC8, p21^Waf1/Cip1, and acetyl-histone H3[Ac-Lys^9]) and incubated overnight at 4°C. The membrane was washed with TBST buffer and incubated with horseradish peroxidase-conjugated secondary antibody for 1 h at room temperature. Signal was captured using SuperSignal™ West Pico Plus chemiluminescent substrate (Thermo Fischer Scientific Inc., Waltham, MA, USA) on gel documentation system (G : BOX Chemi XRQ, Syngene). The protein band densities were estimated using the software ImageJ (version 1.46r, NIH, Bethesda, MD, USA).

[6] = test system: HDAC8; test: Western blotting, HDAC8 expression; type: cell-based, human; details: HCT116 cells, 24 h, compared to normal control
Experimental: as §3, with “Syngene).” for “Syngene). The protein band densities were estimated using the software ImageJ (version 1.46r, NIH, Bethesda, MD, USA).”

[7] = test system: p21^Waf1/Cip1; test: Western blotting, p21Waf1/Cip1 expression; type: cell-based, human; details: HCT116 cells, 24 h, compared to normal control
Experimental: as §3, with “Syngene).” for “Syngene). The protein band densities were estimated using the software ImageJ (version 1.46r, NIH, Bethesda, MD, USA).”

[8] = test system: caspase 3/7 in HCT116 cells; test: Caspase 3/7 activation assay; type: cell-based, human; details: SAHA 5 µM, quercetin 100 µM, QMJ-2 100 µM, QMJ-5 50 µM, normal control 24.60%
Experimental: The downstream signaling pathway of apoptosis was determined using the caspase 3/7 activation assay. In brief, as per the caspase 3/7 activation kit protocol (#MCH100108), 1 × 10^6 cells were seeded in the cell culture dish and after overnight adherence, were incubated with the test compounds. The cells were detached by trypsinization, centrifuged, and washed with PBS. Cell suspension (50 µl) was mixed with the caspase 3/7 antibody reagent (5 µl) and incubated at 37°C temperature for 30 min. 7-AAD (7-amino-actinomycin D) working solution (150 µl) was added, and stained cells were then analyzed in Muse Cell Analyzer (#0500-3115 Merck Millipore).

[9] = test system: HCT116 cells; test: Annexin V staining; type: cell-based, human; details: SAHA 5 µM, quercetin 100 µM, QMJ-2 100 µM, QMJ-5 50 µM, normal control 21.30%
Experimental: Mechanism of cell death induced by synthesized analogues was determined using annexin V staining. In brief, as per annexin V flow cytometry kit protocol (#MCH100105), 1 × 10^6 cells were seeded in a cell culture dish and after overnight adherence, were incubated with test compounds. Cells were then detached by trypsinization, centrifuged, and washed with PBS. Cell suspension (100 µl) was mixed with Muse annexin V reagent (100 µl) and incubated for 20 min at room temperature. The stained cells were quantitatively analyzed for live, early, and late apoptosis using Muse cell analyzer (#0500-3115 Merck Millipore).

[10] = test system: HCT116 cells; test: Cell cycle analysis; type: cell-based, human; details: HCT116, 48 h; SAHA 5 µM, quercetin 100 µM, QMJ-2 100 µM, QMJ-5 50 µM; normal control 29.2%
Experimental: Cell cycle analysis was performed to estimate the effect of synthesized analogues on the different phases of the cell cycle. In brief, 1 × 10^6 cells were seeded in the cell culture dish and allowed to attach overnight followed by incubation with test compounds. After 48 h, the cells were detached by trypsinization, centrifuged, and washed with PBS. The cell pellets were fixed in 70% v/v ice cold ethanol and stored at −20°C for 24 h. After fixing, the pellets were dislodged in PBS and stained with propidium iodide solution and analyzed using Accuri C6 flow cytometer (BD Biosciences, San Jose, CA, USA).

IC50 [3] [µM] | Compound | IC50 [2] [µM] | IC50 [4] [µM] | other results
 | O=c1[nH]cc(F)c(=O)[nH]1 [5-FU, 5-Fluorouracil, reference compound] |  |  | ACF/5 cm^2 ([1]; 21 days treatment, quercetin, QMJ-2, QMJ-5 100 mg/kg p.o., DMH control 25 ± 2.1, mean ± SEM of six animals): 10 ± 1.3 /5 cm^2 and 10 ± 1.3^a /5 cm^2; colon weight/length ratio ([1]; compared with DMH control, others 100 mg/kg p.o., 21 days): significantly (p < 0.05) reduced; Adenocarcinoma ([1]; count in colon, 21 days treatment, quercetin, QMJ-2, QMJ-5 100 mg/kg p.o., DMH control 17 ± 1.7, mean ± SEM of six animals): 8 ± 1.1^a
1023 ± 5.2 | CN(C)c1ccc(-c2oc3ccccc3c(=O)c2O)cc1 [QMJ-1, 2-[4(Dimethylamino)phenyl]-3-hydroxy-4H-1-benzopyran-4-one] | 102 ± 1.8 | 186 ± 4.9 | 
1124 ± 6.2 | Cc1ccc2oc(-c3ccc(N(C)C)cc3)c(O)c(=O)c2c1 [QMJ-3, 2-[4-(Dimethylamino)phenyl]-3-hydroxy-6-methyl-4H-1-benzopyran-4-one] | 70.3 ± 4.1 | 80.1 ± 3.7 | 
1011 ± 3.4 | Cc1ccc(-c2oc3ccc(C)cc3c(=O)c2O)cc1 [QMJ-4, 3-Hydroxy-6-methyl-2-(4-methylphenyl)-4H-1-benzopyran-4-one] | > 400 | > 400 | 
984.2 ± 2.5 | COc1ccc2c(=O)c(O)c(-c3ccc(C)cc3)oc2c1 [QMJ-6, 3-Hydroxy-7-methoxy-2-(4-methylphenyl)-4H-1-benzopyran-4-one] | 94 ± 2.1 | 153 ± 2.3 | 
 | O=C(CCCCCCC(=O)Nc1ccccc1)NO [SAHA, reference compound] |  |  | expression of acetylated histone H3K9 [5]: significant increase; HDAC8 expression [6]: significant reduction; expression of p21^Waf1/Cip1 [7]: increased; percentage of apoptotic cells (Apoptotic/Dead, caspase 3/7) [8]: 56.30%; percentage of cells undergoing late apoptosis (Late Apop./Dead, annexin V) [9]: 27.65%; percentage of cells in G2/M phase [10]: 37.5%
